The subject of test [1] is stable HCV 1b RLuc replicon cells (genotype 1b Con1 replicon). Nature of the test: HCV genotype 1b RLuc replicon reporter assay. The test is classed as cell-based. As to conditions: Hepatitis C virus; stable genotype 1b Con1 RLuc replicon cells, 72 hours. The essentials: (§1)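 EC50 derived by non-linear regression of Renilla luciferase signal measured in lysates 72 h after adding 3-fold serial compound dilutions. Replicons: stable genotype 1b Con1 cells; transient Huh-Lunet transfections of NS5A chimeras—4a ED43 or 3a S52 in Con1, 2b MD2b-1 (M31) in JFH-1.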

The test system of test [2] is stable HCV 1a RLuc replicon cells (genotype 1a H77 replicon). The test is described as follows: HCV genotype 1a RLuc replicon reporter assay. In kind it is cell-based. As to conditions: Hepatitis C virus; stable genotype 1a H77 RLuc replicon cells, 72 hours. For orientation: A replicon is a self-replicating genome or part of one, used to study replication in cells.
In test [3] the test system is stable HCV 2a JFH-1 Rluc replicon cells (L31 present in NS5A). The test is described as follows: HCV genotype 2a JFH-1 RLuc replicon reporter assay. Particulars: Hepatitis C virus, 72 h, read-out: 2a JFH (nM). In kind it is cell-based.
In test [4] the test system is NS5A chimeric genotype 2a JFH-1 replicon with genotype 2a J6 strain NS5A gene (M31). The test is described as follows: HCV genotype 2a J6 NS5A chimeric replicon assay, transient (t). Particulars: Hepatitis C virus, 72 h, read-out: 2a J6 (t) (nM). In kind it is cell-based.
For test [5], the system named is NS5A chimeric genotype 2a JFH-1 replicon with genotype 2b MD2b-1 strain NS5A gene (M31). Nature of the test: HCV genotype 2b NS5A chimeric replicon assay, transient (t). As to conditions: Hepatitis C virus, 72 h, read-out: 2b (t) (nM). The test is classed as cell-based. On the procedure: (§2) Evaluation of cell-based anti-HCV activity: Antiviral potency (EC50) was determined using a Renilla luciferase (RLuc)-based HCV replicon reporter assay. To perform the assay for genotype 1 and 2a JFH-1, stable HCV 1a RLuc replicon cells (harboring a dicistronic genotype 1a H77 replicon that encodes a RLuc reporter), stable HCV lb RLuc replicon cells (harboring a dicistronic genotype 1b Conl replicon that encodes a RLuc reporter), or stable HCV 2a JFH-1 Rluc replicon cells (harboring a dicistronic genotype 2a JFH-1 replicon that encodes a RLuc reporter; with L31 present in NS5A) were dispensed into 384-well plates for EC50 assays. To perform the assay for genotype 2a (with M31 present in NS5A) or 2b, NS5A chimeric genotype 2a JFH-1 replicons that encodes a RLuc-Neo reporter and either genotype 2a J6 strain NS5A gene or genotype 2b MD2b-1 strain NS5A gene (both with M31 present) respectively, were either transiently transfected (t) into Huh-Lunet cells or were established as stably replicating replicon cells (s) is provided. Either cells were dispensed into 384-well plates for EC50 assays. To perform the assay for genotype 3 and 4, NS5A chimeric genotype 1b Conl replicons that encodes a Pi-RLuc reporter and either genotype 3a S52 strain NS5A gene or genotype 4a ED43 strain NS5A gene respectively, were transiently transfected (t) into Huh-Lunet cells, which were subsequently dispensed into 384-well plates. Compounds were dissolved in DMSO at a concentration of 10 mM and diluted in DMSO either manually or using an automated pipeting instrument. Serially 3-fold diluted compounds were either manually mixed with cell culture media and added to the seeded cells or directly added to the cells using an automated instrument. DMSO was used as a negative (solvent; no inhibition) control, and the protease inhibitor ITMN-191 was included at a concentration >100×EC50 as a positive control. 72 hours later, cells were lysed and Renilla luciferase activity quantified as recommended by the manufacturer (Promega-Madison, Wis.). Non-linear regression was performed to calculate EC50 values.

The subject of test [6] is NS5A chimeric genotype 1b Con1 replicon with genotype 3a S52 strain NS5A gene. The test is described as follows: HCV genotype 3a NS5A chimeric replicon assay. The test is classed as cell-based. As to conditions: Hepatitis C virus, 72 h, read-out: 3a (nM). The essentials: as §1
The test system of test [7] is NS5A chimeric genotype 1b Con1 replicon with genotype 4a ED43 strain NS5A gene. The test is described as follows: HCV genotype 4a NS5A chimeric replicon assay. Particulars: Hepatitis C virus, 72 h, read-out: 4a (s) (nM). In kind it is cell-based.
Test [8] concerns Y93H in genotype 1a NS5A replicon. Nature of the test: Resistance mutant replicon assay, genotype 1a NS5A Y93H. As to conditions: Hepatitis C virus, read-out: 1a Y93H (nM). The test is classed as cell-based, HCV. The method, then: as §2
(§3) To determine the antiviral potency (EC50) against resistance mutants, resistance mutations, including M28T, Q30R, Q30H, Q30E, L31M, Y93C, Y93H, and Y93N in genotype 1a NS5A, Y93H and L31V/Y93H in genotype 1b NS5A, and Y93H for in genotype 3a NS5A, were introduced individually into either 1a Pi-Rluc or 1b Pi-Rluc replicons by site directed mutagenesis. Replicon RNA of each resistant mutant was transiently transfected into Huh-7-derived cured-51 cells and antiviral potency was determined on these transfected cells as described above.

The test system of test [9] is Y93N in genotype 1a NS5A replicon. Nature of the test: Resistance mutant replicon assay, genotype 1a NS5A Y93N. In kind it is cell-based, HCV. As to conditions: Hepatitis C virus, read-out: 1a Y93N (nM). The method, then: as §2, §3
The subject of test [10] is Y93H in genotype 3a NS5A replicon. The test is described as follows: Resistance mutant replicon assay, genotype 3a NS5A Y93H. The test is classed as cell-based, HCV. As to conditions: Hepatitis C virus, read-out: 3a Y93H (nM). On the procedure:
as §2, §3

Test [11] has as its system NS5A chimeric genotype 2a JFH-1 replicon with genotype 2b MD2b-1 strain NS5A gene (M31). The test is described as follows: HCV genotype 2b NS5A chimeric replicon assay, stable (s). The test is classed as cell-based. As to conditions: Hepatitis C virus, 72 h, read-out: 2b (s) (nM).
Test [12] has as its system Q30E in genotype 1a NS5A replicon. The test is described as follows: Resistance mutant replicon assay, genotype 1a NS5A Q30E. As to conditions: Hepatitis C virus, read-out: 1a Q30E (nM). The test is classed as cell-based, HCV. On the procedure:
as §2, §3

Experimental findings from US20160362416A1, “ANTIVIRAL COMPOUNDS” (Gilead Sciences, Inc., priority 2012, published 2016) are described below.

On to `COC(=O)N[C@H](C(=O)N1[C@@H](C)CC[C@H]1c1ncc(-c2ccc3c(c2)COc2cc4c(ccc5nc([C@@H]6CCCN6C(=O)[C@@H](NC(=O)OC)C6C[C@@H](C)O[C@H](C)C6)[nH]c54)cc2-3)[nH]1)C(C)C` (stereo partly drawn) [Example AW, methyl {(2S)-1-[(2S,5S)-2-(5-{2-[(2S)-1-{(2S)-2-[(2R,6R)-2,6-dimethyltetrahydro-2H-pyran-4-yl]-2-[(methoxycarbonyl)amino]acetyl}pyrrolidin-2-yl]-1,11-dihydroisochromeno[4′,3′:6,7]naphtho[1,2-d]imidazol-9-yl}-1H-imidazol-2-yl)-5-methylpyrrolidin-1-yl]-3-methyl-1-oxobutan-2-yl}carbamate], for which the EC50 was 70 pM in test [1]; 29 pM in [2]; 0.011 nM in [3]; 0.021 nM in test [4]; 0.029 nM in test [5]; 0.015 nM in test [6]. For the same molecule, the EC50 is 0.008 nM in test [7], 0.704 nM in [8], 1.47 nM in test [9] and 1.51 nM in test [10].

Regarding `CC[C@H](C)[C@H](NC(=O)OC)C(=O)N1[C@@H](C)CC[C@H]1c1nc2ccc3cc4c(cc3c2[nH]1)OCc1cc(-c2cnc([C@@H]3CC[C@H](C)N3C(=O)[C@@H](NC(=O)OC)C3C[C@@H](C)O[C@H](C)C3)[nH]2)ccc1-4` (stereo partly drawn) [Example BL, methyl{(2S,3S)-1-[(2S,5S)-2-(9-{2-[(2S,5S)-1-{(2S)-2-[(2R,6R)-2,6-dimethyltetrahydro-2H-pyran-4-yl]-2-[(methoxycarbonyl)amino]acetyl}-5-methylpyrrolidin-2-yl]-1H-imidazol-5-yl}-1,11-dihydroisochromeno[4′,3′:6,7]naphtho[1,2-d]imidazol-2-yl)-5-methylpyrrolidin-1-yl]-3-methyl-1-oxopentan-2-yl}carbamate], the EC50 in [1] was found to be 24 pM; in test [2], 18 pM; in [3], 0.009 nM; in test [4], 0.022 nM; in [5], 0.021 nM; in test [6], 0.014 nM. Besides, the EC50 came out at 0.006 nM in test [7], 0.228 nM in test [8], 0.531 nM in test [9] and 1.05 nM in test [10].

Consider `COC(=O)N[C@H](C(=O)N1[C@@H](C)CC[C@H]1c1ncc(-c2ccc3c(c2)COc2cc4c(ccc5nc([C@@H]6C[C@@H]7CCC[C@@H]7N6C(=O)[C@@H](NC(=O)OC)C6C[C@@H](C)O[C@H](C)C6)[nH]c54)cc2-3)[nH]1)C(C)C` (stereo partly drawn) [Example AX, methyl {(2S)-1-[(2S,5S)-2-(5-{2-[(2S,3aS,6aS)-1-{(2S)-2-[(2R,6R)-2,6-dimethyltetrahydro-2H-pyran-4-yl]-2-[(methoxycarbonyl)amino]acetyl}octahydrocyclopenta[b]pyrrol-2-yl]-1,11-dihydroisochromeno[4′,3′:6,7]naphtho[1,2-d]imidazol-9-yl}-1H-imidazol-2-yl)-5-methylpyrrolidin-1-yl]-3-methyl-1-oxobutan-2-yl}carbamate], for which the EC50 in [1] stood at 22 pM; in test [2], 17 pM; in test [3] it was 0.012 nM; in test [4] it was 0.046 nM; in test [11], 0.027 nM; in [6], 0.015 nM. The EC50 in [7] is 0.01 nM; in [8], 0.48 nM; in [9], 0.885 nM; in test [10], 4.97 nM.

As to `COC(=O)N[C@H](C(=O)N1[C@@H](C)CC[C@H]1c1ncc(-c2ccc3c(c2)COc2cc4c(ccc5nc([C@@H]6C[C@H](C)CN6C(=O)[C@@H](NC(=O)OC)C6CCOCC6)[nH]c54)cc2-3)[nH]1)C(C)C` [Comp 13, reference compound], the EC50 in test [1] stood at 48 pM; in test [2] it was 25 pM; in test [11], 0.048 nM; in test [7], 4.4 nM; in test [12] it was 0.371 nM; in [8] it was 1.07 nM. Further, the EC50 came out at 2.13 nM in [9] and 4.4 nM in [10].

In the case of `COC(=O)N[C@H](C(=O)N1[C@H](c2ncc(-c3ccc4c(c3)COc3cc5c(ccc6nc([C@@H]7CC[C@H](C)N7C(=O)[C@@H](NC(=O)OC)C7CCOCC7)[nH]c65)cc3-4)[nH]2)C[C@@H]2CCC[C@@H]21)C(C)C` [Comp 8, reference compound], the EC50 in [1] came to 40 pM; in test [2] it was 28 pM; in test [11], 0.113 nM; in test [6], 0.071 nM; in test [12], 0.979 nM; in [8], 1.9 nM. Further, the EC50 in test [9] was 4.58 nM.

For `CC[C@H](C)[C@H](NC(=O)OC)C(=O)N1[C@H](c2ncc(-c3ccc4c(c3)COc3cc5c(ccc6nc([C@@H]7CC[C@H](C)N7C(=O)[C@@H](NC(=O)OC)C7C[C@@H](C)O[C@H](C)C7)[nH]c65)cc3-4)[nH]2)C[C@@H]2CCC[C@@H]21` (stereo partly drawn) [Example BG, methyl{(2S,3S)-1-[(2S,3aS,6aS)-2-(5-{2-[(2S,5S)-1-{(2S)-2-[(2R,6R)-2,6-dimethyltetrahydro-2H-pyran-4-yl]-2-[(methoxycarbonyl)amino]acetyl}-5-methylpyrrolidin-2-yl]-1,11-dihydroisochromeno[4′,3′:6,7]naphtho[1,2-d]imidazol-9-yl}-1H-imidazol-2-yl)hexahydrocyclopenta[b]pyrrol-1(2H)-yl]-3-methyl-1-oxopentan-2-yl}carbamate], the EC50 in [1] was determined as 18 pM; in [2] it was 20 pM; in [3] it was 0.017 nM; in [4], 0.045 nM; in [11] it was 0.039 nM; in test [6] it was 0.028 nM. The EC50 is 0.017 nM in test [7], 0.364 nM in [8], 0.883 nM in test [9] and 5.58 nM in [10].
